In patent US20130254944A1, “Herbicide Tolerant Soybeans and Methods of Use” (PIONEER HI BRED INTERNATIONAL INC, priority 2012, published 2013):

Tests used:
Assay type in all cases: in vivo
wild type soybean = test: Greenhouse postemergence test of ALS-inhibiting herbicides, wild type soybean
Experimental: (§1) Soybean lines having wild type als1 & 2 genes, the Als1 mutation, the Als2 mutation, or both the Als1 and Als2 mutations were evaluated for their response to various herbicides. Two seeds from each line were planted into 4-inch pots containing Redi-Earth potting mix (Sun Gro Horticulture Canada Ltd. 52130 RR65, Seba Beach, Alberta TOE 2B0), with two replications planted for each treatment. Pots were placed in flats at 15 pots/flat, and the resulting plants were grown in a greenhouse environment supplemented with lighting (16 hr photoperiod) for the duration of the test. Selected herbicides representing the mode of action that inhibits the acetolactate synthase enzyme, also known as the acetohydroxyacid synthase enzyme, were applied postemergence to soybean when soybean plants were at the V2 growth stage, which is the stage at which the first two trifoliolate leaves were expanded.
(§2) Eleven active ingredients representing the five chemical families with herbicidal activity on the acetolactate synthase enzyme were tested. These herbicides can cause a phytotoxic response in wild type soybean plants. The five chemical families tested were sulfonylaminocarbonyltriazolinone (also known as triazolinone), imidazolinone, sulfonylurea, pyrimidinylthiobenzoate, and triazolopyrimidine. Application rates ranged from 0.5 times to eight times the currently labeled application rate for each active ingredient with spray application volume at 30 gallons/acre. The application rates tested were 0.5×, 1×, 2×, 4× and 8× the label rate for each herbicide. Herbicidal active ingredients were applied as formulated materials dispersed in water containing 0.25% nonionic surfactant (Trend® 90).
(§3) The test was evaluated by visually scoring plant phenotype 14 days after the herbicides were applied. Controls consisted of soybean plants of the same variety that received no herbicide treatments for each of all the varieties tested. Soybean response was recorded on a zero to 100 visual scale in which zero is no phytotoxic response and 100 is plant death fourteen days after the herbicides were applied. Soybean response (percent phytotoxicity) to postemergence applications of herbicides inhibiting the acetolactate synthase enzyme test results are shown in Table 1.

[1] = system: soybean having both the Als1 and Als2 mutations; test: Greenhouse postemergence test of ALS-inhibiting herbicides and isobole analysis, soybean with Als1 and Als2 mutations; details: for Avg response (% phytotoxicity), Trait Als1 + Als2: Table 2; for EC10, Als1 + Als2: rate of herbicide estimated to cause 10% phytotoxic response, loglogistic fit
Experimental: as §1, §2, §3
(§4) Results in Table 1 were evaluated using the isobole method for analyzing interactions. […] Here the biologically active agents that are being assessed for interaction (synergy) are gene mutations in soybean. The effectiveness of the genes in providing improved tolerance to ALS-inhibiting herbicides was assessed by applying increasing doses of herbicides to each soybean line with its mutation(s).
(§5) An isobole reduces a dose response surface in three dimensional space to a two dimensional plot by fixing a defined response level (e.g., 50% response). The isobole plot is a graph in the Cartesian plane with a straight line connecting the isoeffective rates of the individual components of the combination. This straight line represents expected responses for zero interactive combinations. The isoeffective rate used to create the isobole is often the EC50, the rate estimated to elicit 50% response, but other ECx values can be used. Since the isobole method is based on the potency of the components of the combination, an experimental design testing a range of rates expected to elicit the full range of responses (e.g., 0 to maximum response) is best. (Ferry et al. (2005) 2005 Conference on Applied Statistics in Agriculture Proceedings pp 33-50, Manhattan, Kans., Kansas State Univ.; Green and Streibig (1993) Herbicide Mixtures, pp 117-134 in Herbicide Bioassays, Streibig and Hudsk Eds, CRC, Boca Raton, Fla.).
(§6) Loglogistic dose response curves were fit to percent phytotoxicity response data using log 10 of dose (McCullagh and Nelder (1989) Generalized Linear Models, Chapman & Hall, London). Curves were fit using the logit link with normal errors. […]

[2] = system: soybean having the Als1 mutation; test: Greenhouse postemergence test of ALS-inhibiting herbicides, soybean with Als1 mutation; details: for Avg response (% phytotoxicity), Trait Als1: Table 2; for EC10, Als1: rate of herbicide estimated to cause 10% phytotoxic response, loglogistic fit
Experimental: as §1, §2, §3, §4, §5, §6

[3] = system: soybean having the Als2 mutation; test: Greenhouse postemergence test of ALS-inhibiting herbicides, soybean with Als2 mutation; details: for Avg response (% phytotoxicity), Trait Als2: Table 2; for EC10, Als2: rate of herbicide estimated to cause 10% phytotoxic response, loglogistic fit
Experimental: as §1, §2, §3, §4, §5, §6

[4] = 35 g ai/ha postemergence at V2, scored 14 days after application
[5] = 70 g ai/ha postemergence at V2, scored 14 days after application
[6] = 140 g ai/ha postemergence at V2, scored 14 days after application
[7] = 280 g ai/ha postemergence at V2, scored 14 days after application
[8] = 560 g ai/ha postemergence at V2, scored 14 days after application
[9] = 17.5 g ai/ha postemergence at V2, scored 14 days after application

Row | Compound | Soybean response (percent phytotoxicity), Wild type (wild type soybean; [4]) [%] | Soybean response (percent phytotoxicity), Wild type (wild type soybean; [5]) [%] | Soybean response (percent phytotoxicity), Wild type (wild type soybean; [6]) [%] | Soybean response (percent phytotoxicity), Wild type (wild type soybean; [7]) [%] | Soybean response (percent phytotoxicity), Als1 + Als2 [1, 4] [%] | Avg response (% phytotoxicity), Trait Als1 + Als2 ([1]; 35 g ai/ha) [%] | Soybean response (percent phytotoxicity), Als1 + Als2 [1, 5] [%] | Avg response (% phytotoxicity), Trait Als1 + Als2 ([1]; 70 g ai/ha) [%] | Soybean response (percent phytotoxicity), Als1 + Als2 [1, 6] [%] | Avg response (% phytotoxicity), Trait Als1 + Als2 ([1]; 140 g ai/ha) [%] | Soybean response (percent phytotoxicity), Als1 + Als2 [1, 7] [%] | Avg response (% phytotoxicity), Trait Als1 + Als2 ([1]; 280 g ai/ha) [%] | Soybean response (percent phytotoxicity), Als1 [2, 4] [%] | Avg response (% phytotoxicity), Trait Als1 ([2]; 35 g ai/ha) [%] | Soybean response (percent phytotoxicity), Als1 [2, 5] [%] | Avg response (% phytotoxicity), Trait Als1 ([2]; 70 g ai/ha) [%] | Soybean response (percent phytotoxicity), Als1 [2, 6] [%] | Avg response (% phytotoxicity), Trait Als1 ([2]; 140 g ai/ha) [%] | Soybean response (percent phytotoxicity), Als1 [2, 7] [%] | Avg response (% phytotoxicity), Trait Als1 ([2]; 280 g ai/ha) [%] | other results
1 | CCc1cnc(C2=NC(C)(C(C)C)C(=O)N2)c(C(=O)O)c1 (stereo not drawn) [Imazethapyr] | 0 | 0 | 0 | 15 | 0 | 0 | 0 | 0 | 0 | 0 | 5 | 5 | 0 | 0 | 0 | 0 | 0 | 0 | 10 | 10 | Soybean response (percent phytotoxicity), Wild type (wild type soybean; [8]): 20%; Soybean response (percent phytotoxicity), Als1 + Als2 [1, 8]: 10%; Avg response (% phytotoxicity), Trait Als1 + Als2 ([1]; 560 g ai/ha): 10%; EC10, Als1 + Als2 [1]: 549.93 g ai/ha; Soybean response (percent phytotoxicity), Als1 [2, 8]: 20%; Avg response (% phytotoxicity), Trait Als1 ([2]; 560 g ai/ha): 20%; EC10, Als1 [2]: 333.22 g ai/ha; Soybean response (percent phytotoxicity), Als2 [3, 4]: 0%; Avg response (% phytotoxicity), Trait Als2 ([3]; 35 g ai/ha): 0%; Soybean response (percent phytotoxicity), Als2 [3, 5]: 0%; Avg response (% phytotoxicity), Trait Als2 ([3]; 70 g ai/ha): 0%; Soybean response (percent phytotoxicity), Als2 [3, 6]: 0%; Avg response (% phytotoxicity), Trait Als2 ([3]; 140 g ai/ha): 0%; Soybean response (percent phytotoxicity), Als2 [3, 7]: 0%; Avg response (% phytotoxicity), Trait Als2 ([3]; 280 g ai/ha): 0%; Soybean response (percent phytotoxicity), Als2 [3, 8]: 5%; Avg response (% phytotoxicity), Trait Als2 ([3]; 560 g ai/ha): 10%; EC10, Als2 [3]: 560.00 g ai/ha
2 | COc1cc(OC)nc(NC(=O)NS(=O)(=O)c2ncccc2C(=O)N(C)C)n1 [Nicosulfuron] | 10 | 20 | 45 | 65 | 0 | 0 | 0 | 0 | 0 | 0 | 5 | 5 | 0 | 0 | 0 | 0 | 5 | 5 | 25 | 25 | Soybean response (percent phytotoxicity), Wild type (wild type soybean; [9]): 0%; Soybean response (percent phytotoxicity), Als1 + Als2 [1, 9]: 0%; Avg response (% phytotoxicity), Trait Als1 + Als2 ([1]; 17.5 g ai/ha): 0%; EC10, Als1 + Als2 [1]: >280 g ai/ha; Soybean response (percent phytotoxicity), Als1 [2, 9]: 0%; Avg response (% phytotoxicity), Trait Als1 ([2]; 17.5 g ai/ha): 0%; EC10, Als1 [2]: 187.47 g ai/ha; Soybean response (percent phytotoxicity), Als2 [3, 9]: 0%; Avg response (% phytotoxicity), Trait Als2 ([3]; 17.5 g ai/ha): 0%; Soybean response (percent phytotoxicity), Als2 [3, 4]: 0%; Avg response (% phytotoxicity), Trait Als2 ([3]; 35 g ai/ha): 0%; Soybean response (percent phytotoxicity), Als2 [3, 5]: 0%; Avg response (% phytotoxicity), Trait Als2 ([3]; 70 g ai/ha): 0%; Soybean response (percent phytotoxicity), Als2 [3, 6]: 20%; Avg response (% phytotoxicity), Trait Als2 ([3]; 140 g ai/ha): 20%; Soybean response (percent phytotoxicity), Als2 [3, 7]: 35%; Avg response (% phytotoxicity), Trait Als2 ([3]; 280 g ai/ha): 35%; EC10, Als2 [3]: 105.60 g ai/ha
3 | COc1cc(OC)nc(Sc2cccc(Cl)c2C(=O)O)n1 [Pyrithiobac sodium] | 70 | 95 | 98 | 98 | 0 | 0 | 5 | 5 | 25 | 25 | 45 | 45 | 20 | 20 | 50 | 50 | 70 | 70 | 98 | 98 | Soybean response (percent phytotoxicity), Wild type (wild type soybean; [8]): 98%; Soybean response (percent phytotoxicity), Als1 + Als2 [1, 8]: 50%; Avg response (% phytotoxicity), Trait Als1 + Als2 ([1]; 560 g ai/ha): 50%; Soybean response (percent phytotoxicity), Als1 [2, 8]: 97%; Avg response (% phytotoxicity), Trait Als1 ([2]; 560 g ai/ha): 96.5%; Soybean response (percent phytotoxicity), Als2 [3, 4]: 20%; Avg response (% phytotoxicity), Trait Als2 ([3]; 35 g ai/ha): 40%; Soybean response (percent phytotoxicity), Als2 [3, 5]: 30%; Avg response (% phytotoxicity), Trait Als2 ([3]; 70 g ai/ha): 60%; Soybean response (percent phytotoxicity), Als2 [3, 6]: 40%; Avg response (% phytotoxicity), Trait Als2 ([3]; 140 g ai/ha): 80%; Soybean response (percent phytotoxicity), Als2 [3, 7]: 45%; Avg response (% phytotoxicity), Trait Als2 ([3]; 280 g ai/ha): 92.5%; Soybean response (percent phytotoxicity), Als2 [3, 8]: 49%; Avg response (% phytotoxicity), Trait Als2 ([3]; 560 g ai/ha): 98%
